Consider three molecules from US20260256738A1, “METHODS OF TREATING CANCER WITH A RAS MUTATION” (Immuneering Corporation, priority 2023, published 2026).

As usually defined, the IC50 is the midpoint of a concentration-inhibition curve. Read a high IC50 as lower potency. In general, Papp A→B refers to the apparent permeability from the apical to the basolateral side of a cell layer. High values mean fast passage, low ones slow passage. What is called Papp B→A is how fast a substance crosses the layer from the basolateral side. By efflux ratio is commonly meant the permeability from basolateral to apical divided by that in the opposite direction, in the common usage.

Read-outs that look alike come from different tables or passages of the source.

The target of data set [1] is T1, CYP450 2D6 (Homo sapiens, UniProt P10635).
T1 sequence (P10635 whole entry): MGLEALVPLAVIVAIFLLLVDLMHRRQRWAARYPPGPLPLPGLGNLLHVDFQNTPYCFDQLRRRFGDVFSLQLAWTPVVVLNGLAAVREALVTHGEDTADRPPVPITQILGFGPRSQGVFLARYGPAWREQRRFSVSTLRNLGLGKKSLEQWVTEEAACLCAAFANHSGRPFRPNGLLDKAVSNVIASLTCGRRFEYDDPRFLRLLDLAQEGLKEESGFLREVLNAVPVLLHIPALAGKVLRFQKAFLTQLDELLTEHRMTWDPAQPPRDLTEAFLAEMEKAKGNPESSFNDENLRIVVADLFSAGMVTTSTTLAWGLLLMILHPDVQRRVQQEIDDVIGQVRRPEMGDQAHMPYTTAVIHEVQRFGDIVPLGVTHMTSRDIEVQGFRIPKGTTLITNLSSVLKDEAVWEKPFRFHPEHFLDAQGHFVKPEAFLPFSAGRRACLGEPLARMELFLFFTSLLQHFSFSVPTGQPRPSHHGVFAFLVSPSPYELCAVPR
The target of the next data set is CYP450 2C19 (Homo sapiens, UniProt P33261). Briefly: CYP450 Panel. The format is in vitro ADME. Particulars: 10 μM; substrate mephenytoin; in % (unit assumed).
Chain of CYP450 2C19 (P33261 whole entry): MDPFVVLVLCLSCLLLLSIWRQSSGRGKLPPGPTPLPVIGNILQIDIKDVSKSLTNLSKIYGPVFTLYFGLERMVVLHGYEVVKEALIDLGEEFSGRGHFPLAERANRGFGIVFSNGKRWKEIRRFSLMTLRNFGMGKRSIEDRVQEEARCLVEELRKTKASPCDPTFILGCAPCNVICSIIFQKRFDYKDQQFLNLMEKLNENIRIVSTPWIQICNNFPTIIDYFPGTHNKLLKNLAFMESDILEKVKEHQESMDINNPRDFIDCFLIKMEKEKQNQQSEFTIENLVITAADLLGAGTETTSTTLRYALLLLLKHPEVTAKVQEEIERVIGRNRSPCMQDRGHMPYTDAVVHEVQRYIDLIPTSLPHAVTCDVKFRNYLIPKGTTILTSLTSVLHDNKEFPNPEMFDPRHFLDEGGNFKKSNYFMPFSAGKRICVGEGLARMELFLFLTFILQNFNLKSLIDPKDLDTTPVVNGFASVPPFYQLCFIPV
A short description of data set [2]: Microsome Stability (% remaining @1 hour). The format is in vitro ADME. Particulars: SD Rat; 2 μM.
A further data set addresses T2, CYP450 2B6 (Homo sapiens, UniProt P20813).
T2 sequence (P20813 1-491): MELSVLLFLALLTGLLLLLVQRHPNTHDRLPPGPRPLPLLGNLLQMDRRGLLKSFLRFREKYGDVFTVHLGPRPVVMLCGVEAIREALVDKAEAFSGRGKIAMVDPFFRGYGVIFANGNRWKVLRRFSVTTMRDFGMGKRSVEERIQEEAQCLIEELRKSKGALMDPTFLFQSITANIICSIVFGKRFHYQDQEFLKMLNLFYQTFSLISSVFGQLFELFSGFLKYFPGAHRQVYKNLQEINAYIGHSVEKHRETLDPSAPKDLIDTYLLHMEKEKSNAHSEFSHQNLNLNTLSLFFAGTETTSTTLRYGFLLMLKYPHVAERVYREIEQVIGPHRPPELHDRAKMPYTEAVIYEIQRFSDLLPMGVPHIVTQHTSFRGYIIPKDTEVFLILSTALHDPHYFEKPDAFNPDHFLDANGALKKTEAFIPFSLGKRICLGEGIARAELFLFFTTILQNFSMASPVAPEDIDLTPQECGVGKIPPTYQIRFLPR
The data set can be described thus: CYP450 Panel. Format: in vitro ADME. Particulars: 10 μM; substrate bupropion.

Data set [3] can be described thus: Microsome Stability (% remaining @1 hour). Particulars: Human; 2 μM. Format: in vitro ADME.
For a further data set, the target named is hERG Channel (Homo sapiens, UniProt Q12809). Briefly: biochemical.
Chain of hERG Channel (Q12809 whole entry): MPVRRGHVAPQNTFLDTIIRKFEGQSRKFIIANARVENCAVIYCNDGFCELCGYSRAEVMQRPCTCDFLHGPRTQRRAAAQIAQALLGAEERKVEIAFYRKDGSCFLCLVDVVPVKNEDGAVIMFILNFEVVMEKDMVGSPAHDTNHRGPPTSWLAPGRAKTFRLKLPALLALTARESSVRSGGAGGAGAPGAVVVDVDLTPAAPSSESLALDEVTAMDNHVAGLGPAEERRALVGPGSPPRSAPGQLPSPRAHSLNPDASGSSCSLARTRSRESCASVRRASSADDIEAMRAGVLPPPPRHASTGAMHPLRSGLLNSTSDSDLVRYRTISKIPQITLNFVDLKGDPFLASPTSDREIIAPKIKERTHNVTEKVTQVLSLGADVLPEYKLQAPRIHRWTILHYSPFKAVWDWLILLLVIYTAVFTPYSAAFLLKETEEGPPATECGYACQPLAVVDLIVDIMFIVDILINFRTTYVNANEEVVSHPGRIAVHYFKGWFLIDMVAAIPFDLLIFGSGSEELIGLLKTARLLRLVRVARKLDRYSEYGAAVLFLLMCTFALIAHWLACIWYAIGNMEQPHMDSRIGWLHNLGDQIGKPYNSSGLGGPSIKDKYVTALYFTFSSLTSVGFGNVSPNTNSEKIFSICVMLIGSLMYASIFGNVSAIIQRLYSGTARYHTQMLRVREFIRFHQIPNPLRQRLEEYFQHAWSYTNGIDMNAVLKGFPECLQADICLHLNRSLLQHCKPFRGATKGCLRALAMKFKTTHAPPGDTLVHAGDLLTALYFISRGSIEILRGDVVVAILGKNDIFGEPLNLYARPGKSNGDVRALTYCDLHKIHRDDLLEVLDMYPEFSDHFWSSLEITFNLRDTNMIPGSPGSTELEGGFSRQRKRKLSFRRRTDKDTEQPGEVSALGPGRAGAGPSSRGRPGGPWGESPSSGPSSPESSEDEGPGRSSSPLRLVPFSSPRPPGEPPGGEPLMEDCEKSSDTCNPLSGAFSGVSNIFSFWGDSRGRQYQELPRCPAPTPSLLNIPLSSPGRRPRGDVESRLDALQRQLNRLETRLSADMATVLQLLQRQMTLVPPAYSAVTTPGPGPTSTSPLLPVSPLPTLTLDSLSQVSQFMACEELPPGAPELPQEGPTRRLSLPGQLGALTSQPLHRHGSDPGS
A short description of another data set: Caco-2 permeability. Particulars: human. For orientation: Caco-2 monolayers are a common model of the intestinal barrier.
Data set [4] concerns Caco-2. Briefly: Caco-2 permeability. Particulars: 10 μM, 2 hrs.
A short description of data set [5]: Plasma Stability (% remaining @2 hour). Format: in vitro ADME. Particulars: Human; 2 μM.
The target in data set [6] is T1, CYP450 2D6. Briefly: CYP450 Panel. Particulars: 10 μM; substrate dextromethorphan; in % (unit assumed).
Another data set has as its target T3, CYP450 1A2 (Homo sapiens, UniProt P05177).
T3 sequence (P05177 1-516): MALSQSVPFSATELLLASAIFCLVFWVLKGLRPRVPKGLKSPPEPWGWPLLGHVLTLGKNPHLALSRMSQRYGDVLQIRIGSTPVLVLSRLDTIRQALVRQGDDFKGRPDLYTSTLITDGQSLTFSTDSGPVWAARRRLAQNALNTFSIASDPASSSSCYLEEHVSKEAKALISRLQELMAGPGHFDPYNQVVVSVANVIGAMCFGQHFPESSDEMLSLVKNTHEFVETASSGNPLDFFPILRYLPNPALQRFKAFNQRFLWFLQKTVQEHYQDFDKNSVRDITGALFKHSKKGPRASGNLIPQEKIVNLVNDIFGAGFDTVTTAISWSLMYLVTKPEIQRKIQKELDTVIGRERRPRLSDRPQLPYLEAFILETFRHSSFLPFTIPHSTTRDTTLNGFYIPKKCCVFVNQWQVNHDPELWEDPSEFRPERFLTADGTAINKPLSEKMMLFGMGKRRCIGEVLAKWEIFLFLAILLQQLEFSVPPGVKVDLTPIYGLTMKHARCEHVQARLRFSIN
The data set can be described thus: CYP450 Panel. Particulars: 10 μM; substrate phenacetin; in % (unit assumed).

Data set [7] can be described thus: Microsome Stability (% remaining @1 hour). Particulars: Beagle Dog; 2 μM. The format is in vitro ADME.
The target in the next data set is CYP450 3A4 (Homo sapiens, UniProt P08684). Briefly: CYP450 Panel. Particulars: 10 μM. The format is in vitro ADME.
Chain of CYP450 3A4 (P08684 whole entry): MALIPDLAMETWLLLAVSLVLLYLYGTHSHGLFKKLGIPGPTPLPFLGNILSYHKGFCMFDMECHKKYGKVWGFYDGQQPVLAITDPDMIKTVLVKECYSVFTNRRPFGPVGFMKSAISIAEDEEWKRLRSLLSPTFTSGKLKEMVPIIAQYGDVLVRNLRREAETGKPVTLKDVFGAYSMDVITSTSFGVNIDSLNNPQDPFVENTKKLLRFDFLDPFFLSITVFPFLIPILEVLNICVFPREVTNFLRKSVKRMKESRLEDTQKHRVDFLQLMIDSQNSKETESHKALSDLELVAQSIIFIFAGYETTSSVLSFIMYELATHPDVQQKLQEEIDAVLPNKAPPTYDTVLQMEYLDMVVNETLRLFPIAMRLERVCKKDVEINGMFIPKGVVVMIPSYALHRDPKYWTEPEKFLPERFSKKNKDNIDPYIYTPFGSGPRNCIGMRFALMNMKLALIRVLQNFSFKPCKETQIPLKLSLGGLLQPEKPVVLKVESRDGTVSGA
Another data set addresses CYP450 2C9 (Homo sapiens, UniProt P11712). The data set can be described thus: CYP450 Panel. Format: in vitro ADME. Particulars: 10 μM; substrate Diclofenac; in % (unit assumed).
The test system of another data set is pERK in A549 (KRAS-G12S). The data set can be described thus: Cell-based pERK dose response / phospho-ERK screen in A549. Further details: species or system Human. Particulars: A549 (KRAS G12S), 10 μM for 2 hours. The protocol: Materials and Methods: A549 or A375 cells were seeded in 6-well plates at an appropriate seeding density on day 0. On day 2 or 3, after checking the health and confluency of cells, the media was aspirated and replaced with 1 mL media containing a predetermined concentration of compound and incubated for 2 hours. After 2 hours, the media was aspirated, and the cells washed 2 times with cold PBS. Cells were lysed on ice, with 50 μL 1× CST lysis buffer+1 mM PMSF for 5 minutes. After 5 minutes, cells were removed using a scraper and transferred to cold 1.5 mL tubes, and centrifuged for 10 min, 4° C., 14,000×g. Supernatant was gently removed and snap frozen in liquid nitrogen. Protein concentration of the lysate was determined using Bradford Reagent (analyzed using SpectraMax M2E) and diluted to 1 mg/mL or pERK or 1.5 mg/mL for pMEK analysis. […] All dilutions were in Milk-free antibody diluent.

Data set [8] is described as follows: Plasma Stability (% remaining @2 hour). The format is in vitro ADME. Particulars: Beagle Dog; 2 μM.
The target of a further data set is T4, CYP450 2C8 (Homo sapiens, UniProt P10632).
T4 sequence (P10632 1-490): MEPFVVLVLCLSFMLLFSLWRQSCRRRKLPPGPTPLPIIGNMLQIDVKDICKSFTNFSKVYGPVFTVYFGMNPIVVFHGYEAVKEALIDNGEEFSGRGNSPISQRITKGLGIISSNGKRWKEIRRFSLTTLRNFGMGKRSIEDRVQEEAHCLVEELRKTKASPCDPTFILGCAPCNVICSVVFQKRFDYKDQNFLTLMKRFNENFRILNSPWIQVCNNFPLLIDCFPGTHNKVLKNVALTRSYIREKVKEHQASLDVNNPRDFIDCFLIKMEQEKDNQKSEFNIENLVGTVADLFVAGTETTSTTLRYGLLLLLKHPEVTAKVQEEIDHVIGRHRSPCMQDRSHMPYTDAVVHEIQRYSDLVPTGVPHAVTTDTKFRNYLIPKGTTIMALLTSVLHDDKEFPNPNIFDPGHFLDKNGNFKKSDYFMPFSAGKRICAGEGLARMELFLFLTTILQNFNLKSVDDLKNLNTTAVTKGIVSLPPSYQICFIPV
Briefly: CYP450 Panel. The format is in vitro ADME. Particulars: 10 μM; substrate amodiaquine.

Data set [9] can be described thus: Plasma Stability (% remaining @2 hour). Format: in vitro ADME. Particulars: SD Rat; 2 μM.
Data set [10] can be described thus: Plasma Stability (% remaining @2 hour). Particulars: CD-1 Mouse; 2 μM. Format: in vitro ADME.
A short description of data set [11]: Microsome Stability (% remaining @1 hour). Particulars: CD-1 Mouse; 2 μM.
The test system of data set [12] is Caco-2.

Chain of CYP450 2C9 (P11712 whole entry): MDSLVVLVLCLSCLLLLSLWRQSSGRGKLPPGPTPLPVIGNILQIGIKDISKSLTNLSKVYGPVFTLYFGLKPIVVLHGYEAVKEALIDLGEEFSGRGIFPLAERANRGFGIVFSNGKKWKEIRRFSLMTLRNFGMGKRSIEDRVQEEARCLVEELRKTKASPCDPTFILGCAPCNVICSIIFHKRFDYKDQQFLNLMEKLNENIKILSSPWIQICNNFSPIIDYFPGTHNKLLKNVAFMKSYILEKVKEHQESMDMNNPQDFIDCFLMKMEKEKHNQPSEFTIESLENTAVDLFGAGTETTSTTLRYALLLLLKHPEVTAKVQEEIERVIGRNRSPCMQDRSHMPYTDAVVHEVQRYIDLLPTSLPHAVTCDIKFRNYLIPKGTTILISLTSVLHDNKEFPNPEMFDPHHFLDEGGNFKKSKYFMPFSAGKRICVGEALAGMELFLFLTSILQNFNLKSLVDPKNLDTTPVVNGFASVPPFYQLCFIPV

As to `C=C[C@H]1C[N@@]2CC[C@H]1C[C@@H]2[C@@H](O)c1ccnc2ccc(OC)cc12` [Quinidine], on CYP450 2D6 [1], the “CYP450 Panel 2D6” value turned out to be 99.7.

As for `CNS(=O)(=O)Nc1cccc(Cc2c(C)c3ccc(OC(=O)N(C)C)cc3oc2=O)c1F` [Reference 7], the “CYP450 Panel 2C19” value at CYP450 2C19 turned out to be 11.6. Further, the “Microsome stability, % Remaining @1 hour” value in [2] amounted to 2.7%; in data set [3], 61.1%; in data set [7] it was 57.0%; in [11], 29.6%. Moreover, the CYP450 Panel 2B6 on CYP450 2B6 is 28.5%. 28.6 µM corresponded to half-maximal inhibition against hERG Channel (IC50). This molecule also returned an apical-to-basolateral permeability (Papp A→B) at 2 h, 10 μM in the data set “Caco-2 permeability” of 14.4 ×10⁻⁶ cm/s. In “Caco-2 permeability”, this molecule returned a basolateral-to-apical permeability (Papp B→A) at 2 h, 10 μM of 10 ×10⁻⁶ cm/s. Further, in “Caco-2 permeability”, the efflux ratio at 2 h, 10 μM amounted to 0.695. Moreover, the “A − B Permeability Ranking” value with Caco-2 [4] was “High”. Also, the “Plasma stability, % Remaining @2 hour” value in data set [5] stood at 88.1%; in data set [8], 99.8%; in data set [9], 77.3%; in data set [10], 56.5%. For the same molecule, the “CYP450 Panel 2D6” value at CYP450 2D6 [6] was −7.4. On CYP450 1A2, the “CYP450 Panel 1A2” value is 0.3. The CYP450 Panel 3A4 (midazolam) on CYP450 3A4 (substrate midazolam) was found to be 29.9%. Further, at CYP450 3A4 (substrate testosterone), the CYP450 Panel 3A4 (testosterone) came out at 59.7%. Also, the “CYP450 Panel 2C9” value on CYP450 2C9 is given as 33.8. Besides, the “pERK: total ERK (% relative to vehicle)” value with pERK in A549 (KRAS-G12S) (Table 8A) turned out to be 0.53%; in the data set with pERK in A549 (KRAS-G12S) (Table 8B), 3.33%. This molecule gave a CYP450 Panel 2C8 on CYP450 2C8 of 14.4%.

As for `CC(=O)CC(c1ccccc1)c1c(O)c2ccccc2oc1=O` (stereo not shown) [Warfarin], the “A − B Permeability Ranking” value with Caco-2 [12] is “High”.
